The test system of the test is Phytophthora capsici. In words: Titer plate growth inhibition test on Phytophthora capsici zoospores in potato dextrose broth. It is filed as cell-based. As to conditions: final concentration 100 ppm; cultured at 27° C. for 3 days; absorbance at 600 nm vs non-treated section. Here is the method: Next, test examples are shown. A non-treated in Test Example 1 means a section in which the same operation as in a treated section is performed except that Compound A is not used. After dispensing 1 μL of a dimethyl sulfoxide solution containing a predetermined concentration of Compound A into wells of a titer plate (96 wells), 150 μL of a potato dextrose broth containing zoospores of Phytophthora capsici was dispensed, and the mixture was prepared so as to have a final concentration of Compound A of 100 ppm and defined as a treated section. In addition, a non-treated section was prepared in other wells. The plate was cultured at 27° C. for 3 days to proliferate Phytophthora capsici […], and then the absorbance at 600 nm of each well of the titer plate was measured and defined as the growth degree of Phytophthora capsici. Based on the growth degree, the efficacy was calculated using “Formula 1”. Efficacy(%)=100×(X−Y)/X “Formula 1” • X: Growth degree of bacteria in non-treated section • Y: Growth degree of bacteria in treated section A test was performed according to Test Example 1 using sodium salt monohydrate of Compound A in place of Compound A. As a result, the efficacy was 90%. A test was performed according to Test Example 1 using Compound B in place of Compound A. As a result, the efficacy was 64%.

`O=C(O)COc1ncccc1Oc1ccc(F)cc1Cl` [Compound A, 2-{[3-(2-Chloro-4-fluorophenoxy)pyridin-2-yl]oxy}acetic acid]: the Efficacy turned out to be 100%. `CCOC(=O)COc1ncccc1Oc1ccc(F)cc1Cl` [Compound B, 2-{[3-(2-chloro-4-fluorophenoxy)pyridin-2-yl]oxy}acetic acid ethyl ester] registered an Efficacy of 64%.

These data come from patent US12369582B2, “Pyridyloxyacetic acid compound and use of same” (SUMITOMO CHEMICAL COMPANY, LIMITED, priority 2019, dated 2025).
